# In patent US9593149B2, “Amylin and calcitonin receptor agonist” (Novo Nordisk A/S, priority 2014, dated 2017):
# Numbered stars: 1 amine (or outer) side, 2 acyl side, 3 side chain; on linkers, the order of the positions; unused ones are H or OH. Side chains are listed from the residue outwards. Peptide text beside a SMILES is read from it. * marks the point of attachment. C20 diacid = O=C(O)CCCCCCCCCCCCCCCCCCC(=O)*; C18 diacid = O=C(O)CCCCCCCCCCCCCCCCC(=O)*; γGlu = O=C(O)[C@H](CCC(=O)[*:2])N[*:1]
# Experiments:
# [1] = biological target: T1, rat amylin receptor (rat calcitonin receptor + rat RAMP 3) (Rattus norvegicus, UniProt P32214+Q9JJ73); experiment: Assay (VI) binding to the rat amylin receptor (membrane); conditions: membranes; read-out: rAmylin-R binding IC50
# T1 construct: expressed in transfected cells; host or cells: BHK tk'ts 13 (transient, FuGENE 6)
# T1 sequence (P32214 25-479 isoform P32214-2 limits assumed): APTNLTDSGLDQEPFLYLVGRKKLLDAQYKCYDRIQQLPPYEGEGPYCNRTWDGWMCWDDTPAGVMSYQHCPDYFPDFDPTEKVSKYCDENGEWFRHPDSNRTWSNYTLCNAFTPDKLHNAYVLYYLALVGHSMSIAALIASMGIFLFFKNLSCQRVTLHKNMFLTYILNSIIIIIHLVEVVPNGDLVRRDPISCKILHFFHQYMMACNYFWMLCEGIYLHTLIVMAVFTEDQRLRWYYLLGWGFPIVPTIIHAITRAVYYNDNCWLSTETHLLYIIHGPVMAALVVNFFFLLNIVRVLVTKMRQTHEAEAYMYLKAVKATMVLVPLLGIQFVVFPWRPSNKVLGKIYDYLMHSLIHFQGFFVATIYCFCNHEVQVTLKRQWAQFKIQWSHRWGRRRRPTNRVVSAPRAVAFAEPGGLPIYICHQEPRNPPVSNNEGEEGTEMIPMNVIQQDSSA
# T1 sequence (Q9JJ73 23-147 partner): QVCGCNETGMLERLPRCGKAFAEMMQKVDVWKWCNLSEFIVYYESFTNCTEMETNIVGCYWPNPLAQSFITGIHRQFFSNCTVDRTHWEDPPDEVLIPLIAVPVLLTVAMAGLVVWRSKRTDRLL
# Protocol: The assay was performed as described above (Assay (V)—Determination of binding to the human amylin receptor) with the exception that we used membranes prepared from BHK tk'ts 13 cells that were transiently transfected with the rat calcitonin receptor rat RAMP 3 at an equimolar ratio […]. The BHK tk'ts 13 cells were transiently transfected with rat calcitonin receptor using FuGENE® 6 (Roche), according to the manufacturer's recommendations. Cells were grown in DMEM with 10% FBS and 1% Pen/Strep. Approximately 48 hours after transfection, the cells were harvested and membranes were prepared.
# [2] = biological target: T2, human calcitonin receptor (Homo sapiens, UniProt P30988); experiment: Assay (VII) binding to the human calcitonin receptor (membrane, SPA); conditions: membranes, 125I-Calcitonin; read-out: hCT-R binding IC50
# T2 construct: expressed in transfected cells; host or cells: BHK tk'ts 13
# T2 sequence (P30988 25-474): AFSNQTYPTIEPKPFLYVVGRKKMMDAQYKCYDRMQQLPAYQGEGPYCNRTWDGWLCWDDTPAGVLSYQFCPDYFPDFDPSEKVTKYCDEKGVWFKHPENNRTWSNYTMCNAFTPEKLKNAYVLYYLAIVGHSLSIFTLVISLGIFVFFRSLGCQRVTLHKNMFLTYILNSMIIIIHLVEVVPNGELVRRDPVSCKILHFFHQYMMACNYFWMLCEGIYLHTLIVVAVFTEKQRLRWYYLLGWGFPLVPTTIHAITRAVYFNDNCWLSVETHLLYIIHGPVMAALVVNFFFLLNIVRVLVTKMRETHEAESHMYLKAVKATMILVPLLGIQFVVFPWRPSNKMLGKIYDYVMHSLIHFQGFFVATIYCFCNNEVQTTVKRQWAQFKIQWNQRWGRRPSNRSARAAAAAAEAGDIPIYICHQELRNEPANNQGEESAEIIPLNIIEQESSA
# Protocol: Assay (VII)—Determination of Binding to the Human Calcitonin Receptor (Membrane)
# The binding assay was performed using scintillation proximity assay (SPA) beads (RPNQ0001) from PerkinElmer® and cell membranes prepared from a BHK tk'ts 13 cell line was stably transfected with the human calcitonin receptor and a CRE-responsive luciferase reporter gene. Membranes were prepared in the following way; the cells were rinsed with PBS and incubated with Versene for approximately 5 min before harvesting. The cells were flushed with PBS and the cell-suspension was centrifuged for 5 min at 1000 rpm. Cells were homogenized in a buffer containing 20 mM Na-HEPES and 10 mM EDTA (pH 7.4) and centrifuged at 20.000 rpm for 15 min. The resulting pellet was resuspended, homogenized and centrifuged (20.000 rpm, 15 min) in a buffer containing 20 mM Na-HEPES and 0.1 mM EDTA (pH 7.4, buffer 2). The resulting pellet was resuspended in buffer 2 and protein concentration was tested (BCA protein Assay, Pierce). The homogenate was kept cold during the whole procedure. The membranes were kept at −80° C. until use. Assay was performed in a 384 well Optiplate (PerkinElmer®) in a total volume of 40 ul. Membranes were mixed with SPA beads. Final concentration of membranes 35 ng/μL final and Final concentration of SPA beads was 0.05 mg/well. Test-compounds were dissolved in DMSO and further diluted in assay buffer (50 mM Hepes, pH 7.4, 1 mM CaCl2, 5 mM MgCl2, 0.1% OA and 0.02% Tween20). Radioligand ^125I-Calcitonin was dissolved in assay buffer and added to the Optiplate at a final concentration of 75 pM/well (approx. 30.000 cpm/10 ul). The final mixture was incubated for 120 min with shaking at 400 rpm at 25° C. prior to centrifugation (1500 rpm, 10 min). Samples were analyzed on TopCounter™ (Packard). The IC50 was calculated using (one site binding competition analysis) GraphPad Prism5 as a measure of receptor affinity.
# [3] = biological target: T3, rat calcitonin receptor (Rattus norvegicus, UniProt P32214); experiment: Assay (VIII) binding to the rat calcitonin receptor; conditions: membranes; read-out: rCT-R binding IC50
# T3 construct: expressed in transfected cells; host or cells: BHK tk'ts 13 (transient, FuGENE 6)
# T3 sequence (P32214 25-479 isoform P32214-2 limits assumed): T1 sequence (P32214 25-479 isoform P32214-2 limits assumed)
# How it was run: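 Competition binding on membranes from BHK tk'ts 13 cells transiently transfected with rat calcitonin receptor, otherwise run as the human receptor assay. Plates washed in cold HBSS, lysed in 0.1 M NaOH/1% SDS and scintillation-counted. IC50 from one-site competition fit as affinity measure.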
smiles,measurement,setting,value
"CC(C)C[C@H](NC(=O)[C@H](C)NC(=O)[C@H](C)NC(=O)[C@@H](NC(=O)[C@H](CO)NC(=O)[C@H](CC(C)C)NC(=O)[C@H](CCC(=O)O)NC(=O)[C@H](CO)NC(=O)[C@H](C)NC(=O)[C@H](C)NC(=O)CC[C@H](NC(=O)CCCCCCCCCCCCCCCCCCC(=O)O)C(=O)O)[C@@H](C)O)C(=O)NCC(=O)N[C@@H](CCCNC(=N)N)C(=O)N[C@@H](CC(C)C)C(=O)N[C@@H](CO)C(=O)N[C@@H](C)C(=O)N[C@@H](CCC(=O)O)C(=O)N[C@@H](CC(C)C)C(=O)N[C@@H](Cc1c[nH]cn1)C(=O)N[C@@H](CCC(=O)O)C(=O)N[C@@H](CC(C)C)C(=O)N[C@@H](C)C(=O)N[C@H](C(=O)N[C@@H](Cc1ccc(O)cc1)C(=O)N1CCC[C@H]1C(=O)N[C@@H](CCCNC(=N)N)C(=O)N[C@H](C(=O)N[C@@H](CCC(=O)O)C(=O)N[C@H](C(=O)NCC(=O)N[C@@H](CO)C(=O)NCC(=O)N[C@@H](CO)C(=O)N1CCC[C@H]1C(N)=O)[C@@H](C)O)[C@@H](C)O)[C@@H](C)O [compound 57, [N-terminal(C20 diacid-gGlu), 1A, 23Y, 30S, 31G]mimylin] ({C20 diacid-γGlu}-AASELSTAALGRLSAELHELATYPRTETGSGSP-NH2)",IC50,[1],0.025 nM
same,IC50,[2],0.108 nM
same,IC50,[3],0.044 nM
"CC(=O)N[C@@H](C)C(=O)N[C@@H](CO)C(=O)N[C@@H](CCCCNC(=O)CC[C@H](NC(=O)CCCCCCCCCCCCCCCCCCC(=O)O)C(=O)O)C(=O)N[C@@H](CC(C)C)C(=O)N[C@@H](CO)C(=O)N[C@H](C(=O)N[C@@H](C)C(=O)N[C@@H](C)C(=O)N[C@@H](CC(C)C)C(=O)NCC(=O)N[C@@H](CCCNC(=N)N)C(=O)N[C@@H](CC(C)C)C(=O)N[C@@H](CO)C(=O)N[C@@H](C)C(=O)N[C@@H](CCC(=O)O)C(=O)N[C@@H](CC(C)C)C(=O)N[C@@H](Cc1c[nH]cn1)C(=O)N[C@@H](CCC(=O)O)C(=O)N[C@@H](CC(C)C)C(=O)N[C@@H](C)C(=O)N[C@H](C(=O)N[C@@H](CC(C)C)C(=O)N1CCC[C@H]1C(=O)N[C@@H](CCCNC(=N)N)C(=O)N[C@H](C(=O)N[C@@H](CCC(=O)O)C(=O)N[C@H](C(=O)NCC(=O)N[C@@H](CO)C(=O)NCC(=O)N[C@@H](CO)C(=O)N1CCC[C@H]1C(N)=O)[C@@H](C)O)[C@@H](C)O)[C@@H](C)O)[C@@H](C)O [compound 68, [N-terminal(acetyl), des1, 4K(C20 diacid-gGlu), 30S, 31G]mimylin] (Ac-ASK([γGlu-C20 diacid])LSTAALGRLSAELHELATLPRTETGSGSP-NH2)",IC50,[1],0.046 nM
same,IC50,[2],0.01 nM
same,IC50,[3],0.01 nM
"CC(C)C[C@H](NC(=O)[C@H](CCCNC(=N)N)NC(=O)CNC(=O)[C@H](CC(C)C)NC(=O)[C@@H](NC(=O)[C@H](C)NC(=O)[C@@H](NC(=O)[C@H](CO)NC(=O)[C@H](CC(C)C)NC(=O)[C@H](CCC(=O)O)NC(=O)[C@H](CO)NC(=O)[C@H](C)NC(=O)CC[C@H](NC(=O)CCCCCCCCCCCCCCCCCCC(=O)O)C(=O)O)[C@@H](C)O)C(C)C)C(=O)N[C@@H](CO)C(=O)N[C@@H](CCC(N)=O)C(=O)N[C@@H](CCC(=O)O)C(=O)N[C@@H](CC(C)C)C(=O)N[C@@H](Cc1c[nH]cn1)C(=O)N[C@@H](CCC(=O)O)C(=O)N[C@@H](CC(C)C)C(=O)N[C@@H](CCC(N)=O)C(=O)N[C@H](C(=O)N[C@@H](Cc1ccc(O)cc1)C(=O)N1CCC[C@H]1C(=O)N[C@@H](CCCNC(=N)N)C(=O)N[C@H](C(=O)N[C@@H](CCC(=O)O)C(=O)N[C@H](C(=O)NCC(=O)N[C@@H](CO)C(=O)NCC(=O)N[C@H](C(=O)N[C@@H](Cc1ccc(O)cc1)C(N)=O)[C@@H](C)O)[C@@H](C)O)[C@@H](C)O)[C@@H](C)O [compound 114, [N-terminal(C20 diacid-gGlu), des1, 9V, 15Q, 21Q, 23Y, 30S, 31G, 32T, 33Y]mimylin]",IC50,[1],0.146 nM
same,IC50,[2],0.085 nM
same,IC50,[3],0.021 nM
"CC(C)C[C@H](NC(=O)[C@H](CCC(=O)O)NC(=O)[C@H](C)NC(=O)[C@@H](NC(=O)[C@H](CC(C)C)NC(=O)[C@H](CCCNC(=N)N)NC(=O)CNC(=O)[C@H](CC(C)C)NC(=O)[C@@H](NC(=O)[C@H](C)NC(=O)[C@@H](NC(=O)[C@@H](NC(=O)[C@H](CC(C)C)NC(=O)[C@H](CCC(=O)O)NC(=O)[C@H](CO)NC(=O)[C@H](C)NC(=O)CC[C@H](NC(=O)CCCCCCCCCCCCCCCCC(=O)O)C(=O)O)[C@@H](C)O)[C@@H](C)O)C(C)C)[C@@H](C)O)C(=O)N[C@@H](Cc1c[nH]cn1)C(=O)N[C@@H](CCC(=O)O)C(=O)N[C@@H](CC(C)C)C(=O)N[C@@H](CCC(=O)O)C(=O)N[C@H](C(=O)N[C@@H](CC(C)C)C(=O)N1CCC[C@H]1C(=O)N[C@@H](CCCNC(=N)N)C(=O)N[C@H](C(=O)N[C@@H](CCC(=O)O)C(=O)N[C@H](C(=O)NCC(=O)N[C@H](C(=O)NCC(=O)N[C@H](C(=O)N1CCC[C@H]1C(N)=O)[C@@H](C)O)[C@@H](C)O)[C@@H](C)O)[C@@H](C)O)[C@@H](C)O [compound 105, [N-terminal(C18 diacid-gGlu), des1, 6T, 9V, 14T, 21E, 30T, 31G, 32T]mimylin] ({C18 diacid-γGlu}-ASELTTAVLGRLTAELHELETLPRTETGTGTP-NH2)",IC50,[1],0.162 nM
same,IC50,[2],0.222 nM
same,IC50,[3],0.072 nM
